Values joined by “and” are separate entries in the source; they are usually repeats but may differ in a detail not shown here. Equal entries are not always repeated.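 Cultured in 96-well plates, cells were exposed to test compound for 48 hours across five concentrations. GI50 marks 50% less growth. At the TGI there is no net growth.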
Assays:
Test in all cases: growth of human tumour cells (NCI), 48 h
XF 498 CNS = test system: XF 498 CNS
M19-MEL melanoma = test system: M19-MEL melanoma
DLD-1 colon = test system: DLD-1 colon
DMS 273 small cell lung = test system: DMS 273 small cell lung
KM20L2 colon = test system: KM20L2 colon

CC(C)=CCSC1CC2C(CC1(C)O)C2(C)C (stereo unspecified)
TGI (XF 498 CNS): 18 µM and 16.6 µM | GI50 (M19-MEL melanoma): 1.86 µM and 4.26 µM | TGI (M19-MEL melanoma): 3.31 µM and 19.3 µM | TGI (DLD-1 colon): 33.4 µM and 27.4 µM | TGI (DMS 273 small cell lung): 29.9 µM and 21.5 µM | TGI (KM20L2 colon): 30.8 µM and 34.9 µM

Source: PubChem BioAssay (NCI)
